Data as given in publication PMC2951742 (ChemMedChem, 2010).
Where two headings read alike, the source gives them in different places.

What was measured:
[1] = target: hERG (Homo sapiens, UniProt Q12809); assay: hERG assay; conditions: for hERG inhibition: result in words
[2] = target: CYP2C9 (Homo sapiens, UniProt P11712); assay: Recombinant CYP inhibition test, CYP2C9; type: in vitro ADME; conditions: at 10 μM
[3] = Microsomal stability, rat microsomes; type: in vitro ADME; conditions: 1h assay
[4] = tested on: animals; assay: Adverse side effects in animals; conditions: in vivo
[5] = Microsomal stability, human microsomes; type: in vitro ADME; conditions: 1h assay
[6] = target: CYP2D6 (Homo sapiens, UniProt P10635); assay: Recombinant CYP inhibition test, CYP2D6; type: in vitro ADME; conditions: at 10 μM
[7] = target: CYP3A4 (Homo sapiens, UniProt P08684); assay: Recombinant CYP inhibition test, CYP3A4; type: in vitro ADME; conditions: at 10 μM
[8] = tested on: PCP-disrupted PPI in mice; assay: Normalization of PCP-disrupted prepulse inhibition; type: in vivo; conditions: 6 mg/kg PCP ip
[9] = target: human 5-HT2B receptor (Homo sapiens, UniProt P41595); assay: Calcium flux; type: cell-based; conditions: for 5-HT2B %MAX ± SEM: percent of maximal activation by 5-HT, activation at 10 μM for compounds without EC50 value
[10] = target: T1, human 5-HT2C (INI) receptor (Homo sapiens, UniProt P28335); assay: Calcium flux; type: cell-based; conditions: for 5-HT2C %MAX ± SEM: percent of maximal activation by 5-HT; for Selectivity 2A/2C / Selectivity 2B/2C: ratio of EC50 values
T1 sequence (P28335 33-458): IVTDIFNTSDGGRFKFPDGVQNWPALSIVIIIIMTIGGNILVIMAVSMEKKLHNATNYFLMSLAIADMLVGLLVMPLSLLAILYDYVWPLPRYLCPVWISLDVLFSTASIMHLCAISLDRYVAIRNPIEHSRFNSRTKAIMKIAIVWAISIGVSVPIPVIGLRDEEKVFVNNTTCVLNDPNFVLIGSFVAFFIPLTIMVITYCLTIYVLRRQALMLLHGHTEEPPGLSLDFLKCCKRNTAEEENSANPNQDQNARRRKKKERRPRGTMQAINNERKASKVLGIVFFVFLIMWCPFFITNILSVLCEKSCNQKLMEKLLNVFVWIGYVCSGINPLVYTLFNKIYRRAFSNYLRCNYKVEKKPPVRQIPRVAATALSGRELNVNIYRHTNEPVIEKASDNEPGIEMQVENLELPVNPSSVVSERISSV

[11] = target: human 5-HT2A receptor (Homo sapiens, UniProt P28223); assay: Calcium flux; type: cell-based; conditions: for 5-HT2A %MAX ± SEM: percent of maximal activation by 5-HT, activation at 10 μM for compounds without EC50 value; for 5-HT2A EC50 ± SEM: HEK-293, calcium flux
[12] = tested on: PCP-disrupted PPI in mice; conditions: identical PPI testing paradigm, earlier work; cited from earlier work

hERG, sequence (Q12809 whole entry): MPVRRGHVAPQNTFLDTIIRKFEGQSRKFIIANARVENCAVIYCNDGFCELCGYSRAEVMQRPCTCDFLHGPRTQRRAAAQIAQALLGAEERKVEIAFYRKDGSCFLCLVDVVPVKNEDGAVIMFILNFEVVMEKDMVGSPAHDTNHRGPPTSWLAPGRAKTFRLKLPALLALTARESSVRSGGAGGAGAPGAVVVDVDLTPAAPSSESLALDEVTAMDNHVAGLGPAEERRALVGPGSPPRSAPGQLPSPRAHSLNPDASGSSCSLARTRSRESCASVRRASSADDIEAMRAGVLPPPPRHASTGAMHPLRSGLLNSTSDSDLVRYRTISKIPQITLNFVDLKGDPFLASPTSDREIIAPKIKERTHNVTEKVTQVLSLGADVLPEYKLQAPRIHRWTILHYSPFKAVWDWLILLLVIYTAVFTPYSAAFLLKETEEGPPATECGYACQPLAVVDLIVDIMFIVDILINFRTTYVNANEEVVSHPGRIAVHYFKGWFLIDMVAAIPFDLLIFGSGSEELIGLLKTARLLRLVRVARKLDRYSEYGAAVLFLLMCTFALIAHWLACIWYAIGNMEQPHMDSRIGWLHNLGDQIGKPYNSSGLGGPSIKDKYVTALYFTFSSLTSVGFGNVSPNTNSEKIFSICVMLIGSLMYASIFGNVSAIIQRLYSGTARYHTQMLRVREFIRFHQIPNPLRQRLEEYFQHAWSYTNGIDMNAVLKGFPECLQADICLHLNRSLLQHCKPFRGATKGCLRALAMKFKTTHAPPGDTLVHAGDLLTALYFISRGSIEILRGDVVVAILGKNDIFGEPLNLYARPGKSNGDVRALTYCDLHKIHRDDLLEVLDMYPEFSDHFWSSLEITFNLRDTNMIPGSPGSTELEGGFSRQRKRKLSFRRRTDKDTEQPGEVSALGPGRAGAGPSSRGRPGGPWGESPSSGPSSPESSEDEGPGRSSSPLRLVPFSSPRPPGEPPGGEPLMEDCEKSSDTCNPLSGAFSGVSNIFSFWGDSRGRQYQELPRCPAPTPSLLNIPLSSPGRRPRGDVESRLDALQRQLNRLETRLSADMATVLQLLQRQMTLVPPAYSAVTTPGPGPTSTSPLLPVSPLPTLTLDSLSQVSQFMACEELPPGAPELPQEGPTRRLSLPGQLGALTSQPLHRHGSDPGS
human 5-HT2A receptor, sequence (P28223 whole entry): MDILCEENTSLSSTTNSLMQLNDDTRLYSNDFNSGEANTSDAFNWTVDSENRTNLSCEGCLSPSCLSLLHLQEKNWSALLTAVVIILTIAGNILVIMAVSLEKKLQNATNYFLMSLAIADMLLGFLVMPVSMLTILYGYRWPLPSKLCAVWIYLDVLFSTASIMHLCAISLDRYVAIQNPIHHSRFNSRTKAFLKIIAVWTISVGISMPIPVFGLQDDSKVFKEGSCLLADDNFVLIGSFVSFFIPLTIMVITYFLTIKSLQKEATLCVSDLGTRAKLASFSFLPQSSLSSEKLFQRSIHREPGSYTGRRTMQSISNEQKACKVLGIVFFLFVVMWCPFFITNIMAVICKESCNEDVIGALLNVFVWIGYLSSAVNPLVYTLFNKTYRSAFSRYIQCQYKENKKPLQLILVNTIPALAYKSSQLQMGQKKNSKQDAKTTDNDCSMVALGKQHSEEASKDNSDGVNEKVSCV
human 5-HT2B receptor, sequence (P41595 whole entry): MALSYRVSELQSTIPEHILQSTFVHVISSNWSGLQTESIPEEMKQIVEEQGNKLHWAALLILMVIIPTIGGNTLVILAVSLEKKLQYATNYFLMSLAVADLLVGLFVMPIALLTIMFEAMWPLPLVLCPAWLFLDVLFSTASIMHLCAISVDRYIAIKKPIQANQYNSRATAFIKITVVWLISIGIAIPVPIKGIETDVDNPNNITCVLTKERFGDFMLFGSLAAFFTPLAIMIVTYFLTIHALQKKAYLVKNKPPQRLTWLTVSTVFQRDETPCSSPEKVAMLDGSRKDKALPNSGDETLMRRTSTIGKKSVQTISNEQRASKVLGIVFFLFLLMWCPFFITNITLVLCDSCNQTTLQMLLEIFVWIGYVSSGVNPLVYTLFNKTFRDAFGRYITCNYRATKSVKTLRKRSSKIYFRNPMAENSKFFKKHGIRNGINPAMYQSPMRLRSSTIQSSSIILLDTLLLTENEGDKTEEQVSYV
CYP3A4, sequence (P08684 whole entry): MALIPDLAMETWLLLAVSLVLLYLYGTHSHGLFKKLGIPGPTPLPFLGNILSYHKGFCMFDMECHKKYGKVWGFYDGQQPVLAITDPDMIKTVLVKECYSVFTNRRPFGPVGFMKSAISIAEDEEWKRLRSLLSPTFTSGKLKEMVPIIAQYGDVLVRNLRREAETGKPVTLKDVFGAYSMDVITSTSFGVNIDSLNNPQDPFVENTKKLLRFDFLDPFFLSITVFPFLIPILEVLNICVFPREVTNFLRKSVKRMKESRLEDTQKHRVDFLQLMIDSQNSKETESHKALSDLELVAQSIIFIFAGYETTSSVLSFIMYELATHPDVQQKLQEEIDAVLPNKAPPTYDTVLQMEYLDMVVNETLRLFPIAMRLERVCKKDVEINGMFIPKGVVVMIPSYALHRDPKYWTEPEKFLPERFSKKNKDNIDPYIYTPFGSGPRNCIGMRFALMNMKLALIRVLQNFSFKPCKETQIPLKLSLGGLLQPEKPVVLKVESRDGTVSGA
CYP2D6, sequence (P10635 whole entry): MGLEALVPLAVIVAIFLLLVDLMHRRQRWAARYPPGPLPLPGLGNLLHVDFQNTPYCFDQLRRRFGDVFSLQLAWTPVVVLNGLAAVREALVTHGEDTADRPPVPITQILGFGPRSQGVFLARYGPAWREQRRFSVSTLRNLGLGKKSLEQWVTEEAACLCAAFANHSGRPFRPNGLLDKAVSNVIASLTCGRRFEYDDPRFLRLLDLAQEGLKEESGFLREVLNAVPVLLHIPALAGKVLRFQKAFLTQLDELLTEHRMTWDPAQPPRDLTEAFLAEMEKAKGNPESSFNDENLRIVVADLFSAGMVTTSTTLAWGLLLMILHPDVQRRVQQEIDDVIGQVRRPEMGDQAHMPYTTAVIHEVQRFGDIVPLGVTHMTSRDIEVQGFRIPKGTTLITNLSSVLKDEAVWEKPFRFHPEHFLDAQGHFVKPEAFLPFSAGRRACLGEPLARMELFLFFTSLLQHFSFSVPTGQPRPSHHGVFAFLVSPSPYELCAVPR
CYP2C9, sequence (P11712 whole entry): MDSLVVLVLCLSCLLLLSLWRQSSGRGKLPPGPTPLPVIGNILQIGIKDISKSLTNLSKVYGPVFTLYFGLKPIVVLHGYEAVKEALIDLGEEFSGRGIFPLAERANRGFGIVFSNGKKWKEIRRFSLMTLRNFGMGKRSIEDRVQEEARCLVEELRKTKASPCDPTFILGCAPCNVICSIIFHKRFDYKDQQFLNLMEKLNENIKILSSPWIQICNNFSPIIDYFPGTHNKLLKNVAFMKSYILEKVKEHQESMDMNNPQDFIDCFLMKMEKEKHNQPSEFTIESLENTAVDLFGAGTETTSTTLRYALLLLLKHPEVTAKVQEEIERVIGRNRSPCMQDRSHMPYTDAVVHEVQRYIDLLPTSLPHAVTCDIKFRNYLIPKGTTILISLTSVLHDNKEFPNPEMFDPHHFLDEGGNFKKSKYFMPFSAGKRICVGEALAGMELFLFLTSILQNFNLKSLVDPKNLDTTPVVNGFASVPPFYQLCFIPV

With `NCC1CC1c1cc(F)ccc1OCC1CC1` (single isomer, unassigned; (+)) [(+)-12, trans-[2-(2 cyclopropylmethyloxy-5-fluorophenyl)cyclopropyl]-methylamine] the hERG inhibition [1] was “no hERG inhibition was detected”, the CYP2C9 inhibition [2] was 19.6% and the “Microsomal stability, % left” value [3] was 66%. For the same compound, the “Adverse side effects in animals” value [4] was “no adverse side effects”, the “Microsomal stability, % left” value [5] was 90.5% and the CYP2D6 inhibition [6] was 27.0%. For the same compound, the CYP3A4 inhibition ([7]; midazolam as substrate) was 21.7%, the CYP3A4 inhibition ([7]; testosterone as substrate) was 25.1% and the “Normalization of PCP-disrupted PPI” value ([8]; 5 mg/kg dose level) was “still effective”. For the same compound, the “Normalization of PCP-disrupted PPI” value ([8]; 10 mg/kg) was “able to normalize PCP-disrupted PPI” and the “Normalization of PCP-disrupted PPI (Figure 3)” value ([8]; 30 min pre-treatment, dose not stated in legend) was “effectively normalize PCP-disruption of PPI”.

With `C[C@H]1CNCCc2ccc(Cl)cc21` [2 (Lorcaserin), Lorcaserin] the hERG inhibition [1] was “no hERG inhibition was detected” and the “5-HT2B %MAX ± SEM” value ([9]; first screening campaign) was 93% ± 1.2%.

For `c1cc2c3c(c1)[C@H]1CCC[C@H]1CN3CCNC2` [3 (Vabicaserin), Vabicaserin], the hERG inhibition [1] was “no hERG inhibition was detected”.

In the case of `O=C1Nc2cc(Cl)c(Cl)cc2N2CCNCC12` (centres unmarked) [4 (WAY-161503), WAY-161503], the “hERG inhibition, concentration value” ([1]; quantity not given) is reported as 3.6 mM, the hERG inhibition [1] is reported as “very modest inhibition” and the “5-HT2C %MAX ± SEM” value ([10]; first screening campaign) is reported as 97% ± 1.6%. The “Selectivity 2A/2C” value ([10]; first screening campaign) was 70, the “Selectivity 2B/2C” value ([10]; first screening campaign) was 14 and the “5-HT2C %MAX ± SEM” value ([10]; second screening campaign) was 94% ± 3.6%. The “Selectivity 2A/2C” value ([10]; second screening campaign) was 40, the “Selectivity 2B/2C” value ([10]; second screening campaign) was 11 and the “5-HT2B %MAX ± SEM” value ([9]; first screening campaign) was 92% ± 1.3%. For the same compound, the “5-HT2B %MAX ± SEM” value ([9]; second screening campaign) was 86% ± 4.7%, the “5-HT2A %MAX ± SEM” value ([11]; first screening campaign) was 80% ± 1.0% and the “5-HT2A %MAX ± SEM” value ([11]; second screening campaign) was 79% ± 4.5%.

With `c1cc2c3c(c1)c1c(n3CCNC2)CCCC1` [5 (WAY 629), WAY 629] the hERG inhibition [1] was “no hERG inhibition was detected”, the “5-HT2C %MAX ± SEM” value ([10]; first screening campaign) was 80% ± 1.1% and the “5-HT2C %MAX ± SEM” value ([10]; second screening campaign) was 82% ± 3.5%. For the same compound, the “5-HT2B EC50 ± SEM” value ([9]; first screening campaign (upper table section), HEK-293, calcium flux) was “NA (NA: Emax ≤ 12%)”, the “5-HT2B %MAX ± SEM” value ([9]; first screening campaign) was 6% ± 1.3% and the EC50 ([9]; read-out: 5-HT2B EC50, second screening campaign, value in μM) was > 5 µM. For the same compound, the “5-HT2B %MAX ± SEM” value ([9]; second screening campaign) was 17% ± 2.7%, the “5-HT2A EC50 ± SEM” value ([11]; first screening campaign (upper table section)) was “NA (NA: Emax ≤ 12%)” and the “5-HT2A %MAX ± SEM” value ([11]; first screening campaign) was 1% ± 0.2%. For the same compound, the “5-HT2A EC50 ± SEM” value ([11]; second screening campaign (lower table section)) was “NA (NA: Emax ≤ 12%)” and the “5-HT2A %MAX ± SEM” value ([11]; second screening campaign) was 7% ± 2.0%.

In the case of `CN1CCN(C2=Nc3cc(Cl)ccc3Nc3ccccc32)CC1` [clozapine], the “Normalization of PCP-disrupted PPI” value [12] is listed as “robustly normalizes PCP-disrupted PPI”.
